Reference: publication PMC2569088, “Hydroxylated Metabolites of the Polybrominated Diphenyl Ether Mixture DE-71 Are Weak Estrogen Receptor-α Ligands” (Environmental Health Perspectives, 2008)
Read-outs that look alike come from different tables or passages of the source.

Columns and labels:
[1] = tested on: ERE-luciferase (ER-α-positive BG1Luc4E2 cells); test: ERE-luciferase reporter assay in stably transfected BG1Luc4E2 ovarian cancer cells; assay type: cell-based, human; details: for EC50: determined using the chemical's own maximum effect set at 100%, luciferase 18 hr after addition; for Fold-induction at EC50: normalized to vehicle control (DMSO = 1)
Excerpt: MDA-MB-231 breast cancer cells ([Cailleau et al. 1978]) obtained from ATCC (American Type Culture Collection; Manassas, VA) and BG1Luc4E2 ovarian cancer cells, a gift from M. Denison (University of California, Davis, CA), were used in estrogen bioassays. BG1LucE2 cells are BG-1 ovarian cancer cells ([Geisinger et al. 1989]) stably transfected with an estrogen-responsive plasmid ([Rogers and Denison 2000]). Most cell culture media and supplements were purchased from Gibco/Invitrogen (Carlsbad, CA), except bovine growth serum (BGS; Hyclone, Logan, UT) and geneticin (G418; Sigma). Most charcoal-stripping reagents and endotoxin-free water were purchased from Sigma-Aldrich (St. Louis, MO) except Dulbecco’s phosphate-buffered saline (DPBS; Mediatech Inc., Herndon, VA). MDA-MB-231 cells were maintained in growth medium (GM): minimum essential media (MEM) supplemented with L-glutamine (2 mM), nonessential amino acids (0.1 mM), HEPES buffer (10 mM), […] insulin, and 5% vol/vol BGS]. BG1Luc4E2 cells were maintained in BG1-GM: alpha-MEM supplemented with HEPES buffer (10 mM), geneticin (0.4 g/L) and 10% vol/vol BGS. Basal medium (BM) for MDA-MB-231 cells consisted of a formulation similar to GM, except that phenol red–free MEM and 3% charcoal-stripped BGS were used. BM for BG1Luc4E2 cells (BG1-BM) consisted of phenol red–free Dulbecco’s modified Eagle media: Nutrient Mixture F12 (DMEM:F12; Gibco/Invitrogen) supplemented with HEPES buffer (10 mM) and 10% vol/vol charcoal-stripped BGS. BGS was stripped of estrogenic activity by methods described previously ([Biswas and Vonderhaar 1987]; [Lippman et al. 1976]).
(§1) We used two ERE-luciferase reporter gene systems: one transiently transfected and the other an established stably transfected cell line. For the transient system, ER-negative MDA-MB-231 breast cancer cells were plated in BM. Two days later cells were transfected using Tfx-20 (Promega, Madison, WI) with expression vectors for ER-α(HEG0; from P. Chambon, Université Louis Pasteur, Illkrich, France), the estrogen-responsive firefly luciferase reporter construct ERE2-pS2-luc ([Long et al. 2001]), and the control Renilla luciferase reporter construct pRL-TK (Promega). Cells were treated with test chemicals 1 hr after transfection, and assayed for luciferase activity after 18 hr. Results are expressed as the ratio of firefly luciferase to Renilla luciferase. For the stable reporter system, ER-positive BG1Luc4E2 ovarian cancer cells ([Rogers and Denison 2000]) were incubated in BG1-BM for 5 days before treatment; cells were then assayed for luciferase activity 18 hr after addition of the test compound.
All statistics were performed using GraphPad Prism, version 3.0a, for Macintosh (GraphPad Software, San Diego CA). For each analysis, we determined whether groups had unequal variances by Bartlett’s test. Group averages with equal variances were compared to each other either by one-way analysis of variance (ANOVA) with Tukey post-test or by unpaired t-test as appropriate. Group averages with unequal variances were compared to each other by t-test with Welch’s correction. […] All values are expressed as mean ± SD or SE as indicated. We considered groups statistically different if p < 0.05 by ANOVA with Tukey posttest or t-test (two-tailed). Dose–response studies were also subjected to regression analysis using a sigmoidal curve fitting model: […]

[2] = molecular target: T1, recombinant ER-α (Homo sapiens, UniProt P03372); test: Recombinant ER-α binding assay (3H-E2 displacement)
T1 construct: purchased Panvera/Invitrogen, Madison, WI
T1 sequence (P03372 1-595): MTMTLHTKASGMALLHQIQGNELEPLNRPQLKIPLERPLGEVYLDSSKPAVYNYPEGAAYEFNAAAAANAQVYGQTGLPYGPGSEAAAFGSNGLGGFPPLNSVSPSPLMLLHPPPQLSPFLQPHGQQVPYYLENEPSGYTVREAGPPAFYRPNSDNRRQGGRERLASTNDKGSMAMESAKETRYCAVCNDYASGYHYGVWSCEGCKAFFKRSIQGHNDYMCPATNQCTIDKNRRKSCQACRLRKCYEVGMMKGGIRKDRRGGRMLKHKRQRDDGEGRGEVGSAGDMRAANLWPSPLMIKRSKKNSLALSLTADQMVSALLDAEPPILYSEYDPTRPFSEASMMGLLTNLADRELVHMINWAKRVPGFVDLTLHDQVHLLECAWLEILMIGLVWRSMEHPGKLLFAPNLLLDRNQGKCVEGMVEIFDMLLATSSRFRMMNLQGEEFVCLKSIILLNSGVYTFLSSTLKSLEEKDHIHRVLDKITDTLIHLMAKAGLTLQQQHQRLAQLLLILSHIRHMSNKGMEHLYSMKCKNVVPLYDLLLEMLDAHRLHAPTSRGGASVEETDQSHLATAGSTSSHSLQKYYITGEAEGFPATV

[3] = tested on: BG1Luc4E2 cells; details: 5–50 μM, alone or in combination with E2
[4] = tested on: ERE-luciferase (BG1Luc4E2 cells); test: ERE-luciferase induction in BG1Luc4E2 cells after cotreatment with 10^−11 M E2; assay type: cell-based, human; details: for Effect on E2-induced ERE-luciferase activity (cotreatment): compared with the maximal effect of E2 alone
Description: as §1
See “Material and Methods” for details. […] Error bars indicate SE.

[5] = tested on: ERE-luciferase (MDA-MB-231 cells transfected with ER-α or BG1Luc4E2 cells); test: ERE-luciferase induction by microsomal metabolites (rat liver microsome incubation products); details: female rat liver microsomes, complete NADPH generating system
Description: as §1

[6] = 1 nM 3H-E2, 0.6 nM recombinant ER-α, 4°C overnight

| Structure (SMILES) | EC50 [1] | IC50 [2] | Relative affinity (E2 IC50 ÷ test chemical IC50 × 100) [2] | Effect on E2-induced ERE-luciferase activity (cotreatment) [4] | EC50 ([1]; Homo sapiens, read-out: EC50) | also measured |
| --- | --- | --- | --- | --- | --- | --- |
| Oc1cc(Br)c(Br)cc1Br [2,4,5-TBP, 2,4,5-tribromophenol] | No effect |  |  |  |  | IC50 (concentration yielding 50% displacement of 3H-E2 from receptor) [2, 6]: No effect |
| Oc1ccc(Br)cc1Br [2,4-DBP, 2,4-dibromophenol] | No effect |  |  |  |  | IC50 (concentration yielding 50% displacement of 3H-E2 from receptor) [2, 6]: No effect |
| Oc1cc(Br)ccc1Oc1ccc(Br)cc1Br [2′-OH-BDE-28, 2′-OH - 2,4, 4′ - tribromodiphenyl] |  | 60 µM | 0.001% | able to antagonize the effect of E2 |  | Toxicity (protein content of culture wells at harvest) [3]: no toxicity; Concentration at which antagonism of E2 was observed [4]: 50 µM |
| Oc1c(Br)ccc(Oc2ccc(Br)cc2Br)c1Br [3-OH-BDE-47, 3-OH-2, 2′, 4, 4′-tetrabromodiphenyl] |  |  | 0.001% | able to potentiate the ERE-luciferase induction of E2 |  | IC50 [2, 6]: 52 µM |
| Oc1ccc(Oc2ccc(Br)cc2Br)c(Br)c1Br [4-OH-BDE-42, 4-HO-2, 2′,3, 4′-tetra-bromodiphenyl] |  | 14 µM | 0.005% | appeared to induce ERE-luciferase above the E2 maximum, but the effect was not statistically significant |  |  |
| Oc1ccc(Oc2ccc(Br)cc2Br)c(Br)c1 [4′-OH-BDE-17, 4-OH-2, 2′, 4-tribromodiphenyl] |  | 2.1 µM | 0.03% | beyond the maximal effect of E2 alone | 4.7 µM | Relative effect (test chemical-to-E2 ratio of luciferase induction at EC50) [1]: 1.30 ratio; Relative estrogen potency (ratio of the E2 EC50 to EEP) [1]: 3.4 × 10^−7 ratio; Relative estrogenic potency compared with DE-71 [1]: approximately 10 fold; Emax ([1]; Homo sapiens, read-out: Estimated maximal effect higher than E2): 30%; Fold-induction at EC50 [1]: 4.3 |
| Oc1cc(Br)c(Oc2ccc(Br)cc2Br)cc1Br [4′-OH-BDE-49, 4′-OH-2, 2′,4, 5′-tetrabromodiphenyl] |  | 2.3 µM | 0.03% | beyond the maximal effect of E2 alone | 13 µM | Relative effect (test chemical-to-E2 ratio of luciferase induction at EC50) [1]: 0.36 ratio; Fold-induction at EC50 [1]: 1.2 |
| Oc1cc(Br)cc(Br)c1Oc1ccc(Br)cc1Br [6-OH-BDE-47, 6-OH-2, 2′,4, 4′-tetra-bromodiphenyl] | No effect | 11 µM | 0.001% | able to antagonize the effect of E2 |  | Toxicity (protein content of culture wells at harvest) [3]: no toxicity; Concentration at which antagonism of E2 was observed [4]: 5 µM |
| C[C@]12CC[C@@H]3c4ccc(O)cc4CC[C@H]3[C@@H]1CC[C@@H]2O [E2, 1, 3, 5(10)-estra-triene-3, 17β-diol, reference compound] |  |  |  |  | 1.2e-06 µM | Test concentrations inducing ERE-luciferase [1]: above 10^−13 M; Decrease of activity by microsomal incubation [5]: 78% |
